From the Kinase Knowledgebase extract (Sharma et al. 2016)
Several values for one entry are separate records, joined by “and”; a condition that tells them apart may be missing. Equal entries are not always repeated.

Experiments:
EGFR (human) = EGFR (human) (UniProt P00533); conditions: kb
EGFR = EGFR (UniProt P00533)
Sequence of EGFR (P00533 whole entry, looked up): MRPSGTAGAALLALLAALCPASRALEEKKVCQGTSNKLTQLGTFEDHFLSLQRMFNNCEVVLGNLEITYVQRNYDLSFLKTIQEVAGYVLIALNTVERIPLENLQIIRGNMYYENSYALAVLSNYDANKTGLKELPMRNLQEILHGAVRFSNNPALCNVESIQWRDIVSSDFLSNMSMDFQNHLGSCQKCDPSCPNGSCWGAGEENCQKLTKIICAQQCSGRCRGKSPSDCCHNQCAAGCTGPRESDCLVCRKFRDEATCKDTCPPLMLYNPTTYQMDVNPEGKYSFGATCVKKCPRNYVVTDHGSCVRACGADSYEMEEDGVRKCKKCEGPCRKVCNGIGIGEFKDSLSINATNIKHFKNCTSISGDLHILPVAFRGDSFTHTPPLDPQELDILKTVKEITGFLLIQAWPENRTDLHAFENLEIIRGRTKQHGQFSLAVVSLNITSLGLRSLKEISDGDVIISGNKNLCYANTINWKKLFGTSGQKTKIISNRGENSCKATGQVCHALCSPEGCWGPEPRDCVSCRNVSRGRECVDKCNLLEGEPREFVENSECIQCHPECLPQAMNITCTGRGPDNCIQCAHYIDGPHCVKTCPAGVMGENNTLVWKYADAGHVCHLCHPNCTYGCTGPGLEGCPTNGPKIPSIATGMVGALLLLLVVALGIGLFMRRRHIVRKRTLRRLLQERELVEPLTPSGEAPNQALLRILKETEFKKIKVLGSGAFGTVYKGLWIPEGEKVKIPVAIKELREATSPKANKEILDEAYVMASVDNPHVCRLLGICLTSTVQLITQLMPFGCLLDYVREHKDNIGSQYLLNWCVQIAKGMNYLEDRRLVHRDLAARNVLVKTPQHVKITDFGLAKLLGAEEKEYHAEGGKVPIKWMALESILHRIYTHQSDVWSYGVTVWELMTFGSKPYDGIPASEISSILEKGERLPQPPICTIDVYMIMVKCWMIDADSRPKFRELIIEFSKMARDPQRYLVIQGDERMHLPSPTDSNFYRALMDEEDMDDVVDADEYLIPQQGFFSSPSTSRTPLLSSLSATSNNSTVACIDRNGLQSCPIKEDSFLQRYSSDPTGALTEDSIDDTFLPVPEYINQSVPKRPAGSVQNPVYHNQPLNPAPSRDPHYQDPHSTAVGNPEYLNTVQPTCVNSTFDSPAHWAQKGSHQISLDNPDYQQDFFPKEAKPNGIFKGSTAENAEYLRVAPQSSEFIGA

Sequence of EGFR (human) (P00533 whole entry, looked up): as above

IC50 (EGFR (human)) [nM]	IC50 (EGFR)	Structure (SMILES)
1 to 100	1 to 100 nM	COc1cc2ncnc(Nc3cccc(Cl)c3F)c2cc1OC1CCN(C(=O)COP(=O)(O)O)CC1
1 to 100	3 nM and 1 to 100 nM	COc1cc2ncnc(Nc3cccc(Cl)c3F)c2cc1OC1CCN(C(=O)CO)CC1
